Assay results taken from patent US20070142638A1, “Ornithine derivatives as prostaglandin e2 agonists or antagonists” (Astellas Pharma Inc., priority 2003, published 2007).

Biological target: T1, prostanoid receptor subtype (human EP4) (Homo sapiens, UniProt P35408)
T1 construct: expressed in transfected cells; host or cells: COS-7 cells (membrane fraction)
Assay: Binding assay using membrane preparation with the expression of prostanoid receptor subtype
Details: test compound at 1.0×10^−8 M (10 nM); competition with [^3H]-PGE2 10 nM; membrane fraction of COS-7 cells transfected with human EP4
Experimental: The radioactivity associated with the filter was measured by liquid scintillation counting.
The following buffer was used in all reactions.

T1 sequence (P35408 whole entry): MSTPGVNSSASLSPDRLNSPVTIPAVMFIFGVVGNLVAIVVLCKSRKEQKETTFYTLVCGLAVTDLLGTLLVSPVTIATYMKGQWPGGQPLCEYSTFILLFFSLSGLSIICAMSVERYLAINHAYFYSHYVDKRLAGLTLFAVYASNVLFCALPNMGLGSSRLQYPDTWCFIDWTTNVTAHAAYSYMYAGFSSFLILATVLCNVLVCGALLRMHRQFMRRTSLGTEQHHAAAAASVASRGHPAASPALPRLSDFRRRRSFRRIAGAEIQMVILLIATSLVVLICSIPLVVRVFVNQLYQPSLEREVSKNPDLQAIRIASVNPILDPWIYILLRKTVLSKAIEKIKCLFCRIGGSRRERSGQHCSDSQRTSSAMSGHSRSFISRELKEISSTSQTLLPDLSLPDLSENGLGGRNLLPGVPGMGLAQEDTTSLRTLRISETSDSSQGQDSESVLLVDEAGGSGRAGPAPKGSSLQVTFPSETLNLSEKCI

## O=C(O)CCCCCNC(=O)[C@H](CCCNC(=O)OCc1ccccc1)NC(=O)c1cc2ccccc2o1 [Example 23, Sodium 6-{(2S)-2-[(1-benzofuran-2-yl-carbonyl)-amino]-5-[benzyloxycarbonylamino]pentanoylamino}-hexanoate]
  inhibition at 0.01 µM: ≥ 80%
